Laboratory results taken from ChEMBL document CHEMBL3271962 (J Med Chem, 1976).

Tests used:
[1] = molecular target: Sodium-dependent dopamine transporter (Rattus norvegicus) (UniProt P23977); experiment: Inhibition of [3H]dopamine uptake at dopamine transporter expressed in rat striatal homogenate after 5 mins by scintillation counting analysis relative to (+)-amphetamine
Rattus norvegicus = species on record: Rattus norvegicus; experiment: Inhibition of [3H]norepinephrine uptake at NET expressed in rat hypothalamic homogenate containing synaptosomes after 5 mins by scintillation counting analysis relative to (+)-amphetamine; format: subcellular; settings: Brain
[2] = molecular target: Sodium-dependent dopamine transporter (Rattus norvegicus, UniProt P23977); experiment: Inhibition of [3H]dopamine uptake at dopamine transporter expressed in rat striatal homogenate after 5 mins by scintillation counting analysis
Sequence of Sodium-dependent dopamine transporter (P23977 whole entry): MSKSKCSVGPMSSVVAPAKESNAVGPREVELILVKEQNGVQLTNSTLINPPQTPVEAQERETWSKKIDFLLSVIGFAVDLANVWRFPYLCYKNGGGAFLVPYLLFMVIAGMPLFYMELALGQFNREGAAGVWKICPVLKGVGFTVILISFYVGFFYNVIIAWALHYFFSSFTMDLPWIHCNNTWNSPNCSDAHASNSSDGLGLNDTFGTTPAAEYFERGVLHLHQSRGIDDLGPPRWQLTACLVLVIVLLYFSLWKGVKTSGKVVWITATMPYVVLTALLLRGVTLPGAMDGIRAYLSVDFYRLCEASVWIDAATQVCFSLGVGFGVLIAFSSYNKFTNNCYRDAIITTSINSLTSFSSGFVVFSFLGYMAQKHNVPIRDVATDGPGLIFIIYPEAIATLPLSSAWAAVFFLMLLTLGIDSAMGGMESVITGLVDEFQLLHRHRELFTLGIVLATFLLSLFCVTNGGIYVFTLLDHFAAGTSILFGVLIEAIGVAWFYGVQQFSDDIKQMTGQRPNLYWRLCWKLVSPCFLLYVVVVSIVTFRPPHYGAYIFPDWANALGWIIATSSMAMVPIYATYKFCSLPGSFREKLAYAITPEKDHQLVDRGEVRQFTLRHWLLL

Transporter = Transporter (Rattus norvegicus, UniProt Q63380); experiment: Inhibition of [3H]norepinephrine uptake at NET expressed in rat hypothalamic homogenate containing synaptosomes after 5 mins by scintillation counting analysis; format: subcellular, Brain
Sequence of Transporter (Q63380 whole entry): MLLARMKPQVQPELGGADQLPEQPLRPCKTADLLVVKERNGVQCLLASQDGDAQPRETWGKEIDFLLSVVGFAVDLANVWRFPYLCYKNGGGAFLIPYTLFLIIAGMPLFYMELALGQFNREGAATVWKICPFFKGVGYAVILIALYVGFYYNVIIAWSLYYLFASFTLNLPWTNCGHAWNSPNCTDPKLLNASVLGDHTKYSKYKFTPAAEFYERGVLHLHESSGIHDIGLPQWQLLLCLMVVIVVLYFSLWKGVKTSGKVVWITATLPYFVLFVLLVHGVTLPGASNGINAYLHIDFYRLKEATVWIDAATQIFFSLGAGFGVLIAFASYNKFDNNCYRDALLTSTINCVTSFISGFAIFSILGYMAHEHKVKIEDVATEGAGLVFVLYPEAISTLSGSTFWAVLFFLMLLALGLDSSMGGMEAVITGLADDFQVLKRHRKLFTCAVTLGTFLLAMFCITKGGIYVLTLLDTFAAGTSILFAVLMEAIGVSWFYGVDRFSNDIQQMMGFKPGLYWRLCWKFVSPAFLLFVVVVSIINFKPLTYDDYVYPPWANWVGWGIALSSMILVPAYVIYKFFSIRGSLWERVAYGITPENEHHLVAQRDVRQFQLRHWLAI

Sequence of Sodium-dependent dopamine transporter (Rattus norvegicus) (P23977 whole entry): as the sequence (P23977 whole entry) above

Compound | fold change (FC) [1] | fold change (FC) (Rattus norvegicus) | IC50 [2] [µM] | IC50 (Transporter) [µM]
NC[C@H](O)c1ccc(O)c(O)c1 | 100 | 100 | – | –
NC1C[C@@H]2CCCC[C@H]2CC1c1ccccc1 (mixture of isomers; 1) [listing 1 of 2 here] | – | – | 3.8 | 0.66
NC1C[C@@H]2CCCC[C@H]2CC1c1ccccc1 (mixture of isomers; 1) [listing 2 of 2 here] | 25 | 30 | – | –
NC1C[C@@H]2CCCC[C@H]2CC1c1ccccc1 (mixture of isomers; 2) [listing 1 of 2 here] | – | – | 12 | 18
NC1C[C@@H]2CCCC[C@H]2CC1c1ccccc1 (mixture of isomers; 2) [listing 2 of 2 here] | 8 | 1.1 | – | –
NC1C[C@@H]2CCCC[C@H]2CC1c1ccccc1 (mixture of isomers; 3) [listing 1 of 2 here] | – | – | 20 | 9
NC1C[C@@H]2CCCC[C@H]2CC1c1ccccc1 (mixture of isomers; 3) [listing 2 of 2 here] | 4.8 | 2.2 | – | –
NC1C[C@@H]2CCCC[C@H]2CC1c1ccccc1 (mixture of isomers; 4) [listing 1 of 2 here] | – | – | 7 | 5.5
NC1C[C@@H]2CCCC[C@H]2CC1c1ccccc1 (mixture of isomers; 4) [listing 2 of 2 here] | 14 | 3.6 | – | –
NC1C[C@@H]2CCCC[C@H]2CC1(O)c1ccc(O)c(O)c1 (mixture of isomers; form 1) | 2.3 | 4.4 | – | –
NC1C[C@@H]2CCCC[C@H]2CC1(O)c1ccc(O)c(O)c1 (mixture of isomers; form 2) | 50 | 8.9 | – | –
NC1C[C@@H]2CCCC[C@H]2CC1(O)c1ccc(O)c(O)c1 (mixture of isomers; form 3) | 1.1 | 0.03 | – | –
NC1C[C@@H]2CCCC[C@H]2CC1(O)c1ccc(O)c(O)c1 (mixture of isomers; form 4) | 5.7 | 2 | – | –
